# In patent publication US8003649B2 (AstraZeneca AB, priority 2007, dated 2011):
# Target: T1, Androgen Receptor (AR) (Homo sapiens, UniProt P10275, T878A)
# T1 construct: cell based immuno-fluorescence assay using the LNCaP prostate epithelial cell line; endogenous in cells; host or cells: LNCaP clone FGC (ATCC CRL-1740)
# T1 sequence (P10275 1-920 T878A): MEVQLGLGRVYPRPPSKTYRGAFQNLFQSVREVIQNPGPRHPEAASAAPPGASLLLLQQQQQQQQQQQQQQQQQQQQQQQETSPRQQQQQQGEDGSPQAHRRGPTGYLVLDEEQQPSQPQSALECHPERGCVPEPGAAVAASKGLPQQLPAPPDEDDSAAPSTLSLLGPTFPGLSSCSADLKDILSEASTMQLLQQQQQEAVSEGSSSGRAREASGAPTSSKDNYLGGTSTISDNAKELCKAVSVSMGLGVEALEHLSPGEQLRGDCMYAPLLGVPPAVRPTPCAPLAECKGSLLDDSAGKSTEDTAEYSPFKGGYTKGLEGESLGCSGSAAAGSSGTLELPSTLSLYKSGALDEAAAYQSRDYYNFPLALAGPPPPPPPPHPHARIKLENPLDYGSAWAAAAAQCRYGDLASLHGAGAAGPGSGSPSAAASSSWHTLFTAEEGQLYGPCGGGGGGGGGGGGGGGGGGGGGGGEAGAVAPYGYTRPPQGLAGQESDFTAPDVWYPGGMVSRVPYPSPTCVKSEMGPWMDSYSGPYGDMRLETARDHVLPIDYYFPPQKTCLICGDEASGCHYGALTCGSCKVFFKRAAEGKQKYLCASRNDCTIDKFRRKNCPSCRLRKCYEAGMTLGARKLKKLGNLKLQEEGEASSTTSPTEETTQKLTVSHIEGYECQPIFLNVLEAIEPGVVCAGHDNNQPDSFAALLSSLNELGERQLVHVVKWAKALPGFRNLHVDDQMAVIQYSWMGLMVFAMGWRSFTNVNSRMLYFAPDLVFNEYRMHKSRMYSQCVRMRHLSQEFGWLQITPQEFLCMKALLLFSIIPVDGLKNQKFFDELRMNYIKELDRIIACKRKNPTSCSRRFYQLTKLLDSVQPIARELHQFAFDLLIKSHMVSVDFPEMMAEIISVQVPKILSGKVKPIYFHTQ
# Test: LNCaP Androgen Receptor Down-regulation Cell Assay (immunofluorescence end point)
# Type: cell-based
# Details: LNCaP prostate carcinoma cells, compound incubation 20-22 hours, 50% reduction of the AR signal; read-out: Androgen Receptor Down-regulation Assay (a) IC50/μM
# How it was run: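 LNCaP cells in medium with 5% charcoal-stripped FBS were plated overnight, then treated with a compound dilution series for 20-22 h at 37° C. After fixation, permeabilisation and immunostaining, AR-associated green fluorescence was quantified by laser-scanning microplate cytometry; AR down-regulation expressed as IC50 from fitted dose-response curves.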
row,SMILES,DC50 [µM]
1,"Fc1cccc(CN2CCN(c3ccc4nnc(C(F)F)n4n3)CC2)c1C(F)F [Example 782, 3-(difluoromethyl)-6-[4-[2-(difluoromethyl)-3-fluorobenzyl]piperazin-1-yl][1,2,4]triazolo[4,3-b]pyridazine]",2
2,"Fc1cc(CN2CCN(c3ccc4nnc(C(F)(F)F)n4n3)CC2)cc(C(F)F)c1 [Example 783, 6-[4-[3-(difluoromethyl)-5-fluorobenzyl]piperazin-1-yl]-3-(trifluoromethyl)[1,2,4]triazolo[4,3-b]pyridazine]",0.84
3,"Fc1cc(CN2CCN(c3ccc4nnc(C(F)F)n4n3)CC2)cc(C(F)F)c1 [Example 784, 3-(difluoromethyl)-6-[4-[3-(difluoromethyl)-5-fluorobenzyl]piperazin-1-yl][1,2,4]triazolo[4,3-b]pyridazine]",2.2
4,"Cc1cc(CN2CC3CN(c4ccc5nnc(C(F)(F)F)n5n4)CC3C2)ccn1 (centres unmarked) [Example 785, 6-[5-[(2-methylpyridin-4-yl)methyl]hexahydropyrrolo[3,4-c]pyrrol-2(1H)-yl]-3-(trifluoromethyl)[1,2,4]triazolo[4,3-b]pyridazine]",1.7
5,FC(F)(F)c1nnc2ccc(N3CC4CN(Cc5ccccn5)CC4C3)nn12 (centres unmarked) [Example 786],8.4
6,COc1ncccc1CN1CC2CN(c3ccc4nnc(C(F)(F)F)n4n3)CC2C1 (centres unmarked) [Example 788],2.2
7,Fc1cncc(CN2CC3CN(c4ccc5nnc(C(F)(F)F)n5n4)CC3C2)c1 (centres unmarked) [Example 789],2.1
8,FC(F)(F)c1nnc2ccc(N3CC4CN(Cc5cccnc5Cl)CC4C3)nn12 (centres unmarked) [Example 790],2
9,FC(F)(F)c1nnc2ccc(N3CC4CN(Cc5ccc(Cl)nc5)CC4C3)nn12 (centres unmarked) [Example 791],0.96
10,COc1ccc(CN2CC3CN(c4ccc5nnc(C(F)(F)F)n5n4)CC3C2)cn1 (centres unmarked) [Example 793],1.6
11,FC(F)(F)c1nnc2ccc(N3CC4CN(Cc5cncc(Br)c5)CC4C3)nn12 (centres unmarked) [Example 794],1.1
12,Fc1ncc(Br)cc1CN1CC2CN(c3ccc4nnc(C(F)(F)F)n4n3)CC2C1 (centres unmarked) [Example 795],2.4
13,FC(F)(F)c1nnc2ccc(N3CC4CN(Cc5cccnc5Br)CC4C3)nn12 (centres unmarked) [Example 796],0.63
14,COc1cncc(CN2CC3CN(c4ccc5nnc(C(F)(F)F)n5n4)CC3C2)c1 (centres unmarked) [Example 797],2.4
15,FC(F)(F)c1nnc2ccc(N3CC4CN(Cc5ccc(Br)nc5)CC4C3)nn12 (centres unmarked) [Example 798],1
16,Cc1ncccc1CN1CC2CN(c3ccc4nnc(C(F)(F)F)n4n3)CC2C1 (centres unmarked) [Example 799],1.6
17,FC(F)(F)c1nnc2ccc(N3CC4CN(Cc5cnccc5Cl)CC4C3)nn12 (centres unmarked) [Example 800],1.1
18,COc1ccncc1CN1CC2CN(c3ccc4nnc(C(F)(F)F)n4n3)CC2C1 (centres unmarked) [Example 803],7
19,FC(F)(F)c1ncccc1CN1CC2CN(c3ccc4nnc(C(F)(F)F)n4n3)CC2C1 (centres unmarked) [Example 805],1
20,"COc1cccc(OC2CCN(c3ccc4nnc(C(F)(F)F)n4c3)CC2)c1 [Example 806, 6-[4-(3-methoxyphenoxy)piperidin-1-yl]-3-(trifluoromethyl)[1,2,4]triazolo[4,3-a]pyridine]",2.3
21,FC(F)(F)c1nnc2ccc(N3CCN(Cc4c[nH]c5ccccc45)CC3)cn12 [Example 807],7.5
22,Fc1ccc2[nH]cc(CN3CCN(c4ccc5nnc(C(F)(F)F)n5c4)CC3)c2c1 [Example 808],1

row,SMILES,DC50 [µM]
1,"Fc1ccc(C(F)F)c(CN2CCN(c3ccc4nnc(C(F)(F)F)n4c3)CC2)c1 [Example 810, 6-[4-[2-(difluoromethyl)-5-fluorobenzyl]piperazin-1-yl]-3-(trifluoromethyl)[1,2,4]triazolo[4,3-a]pyridine]",1.9
2,Fc1cc(Cl)cc(CN2CCN(c3ccc4nnc(C(F)F)n4n3)CC2)c1 [Example 813],6.8
3,Fc1ccc(Cl)c(CN2CCN(c3ccc4nnc(C(F)F)n4n3)CC2)c1 [Example 815],> 17
4,Fc1cc(CN2CCN(c3ccc4nnc(C(F)F)n4n3)CC2)cc(F)c1F [Example 818],3.8
5,CS(=O)(=O)c1ccc(F)cc1CN1CCN(c2ccc3nnc(C(F)F)n3n2)CC1 [Example 819],> 18
6,Fc1cccc(CN2CCN(c3ccc4nnc(C(F)F)n4n3)CC2)c1Cl [Example 822],1.7
7,Fc1ccc(CN2CCN(c3ccc4nnc(C(F)F)n4n3)CC2)c(F)c1F [Example 823],4.7
8,"FC(F)c1ccccc1CN1CCN(c2ccc3nnc(C(F)F)n3n2)CC1 [Example 824, 3-(difluoromethyl)-6-[4-[2-(difluoromethyl)benzyl]piperazin-1-yl][1,2,4]triazolo[4,3-b]pyridazine]",1.9
9,"FC(F)c1cccc(CN2CCN(c3ccc4nnc(C(F)F)n4n3)CC2)c1 [Example 825, 3-(difluoromethyl)-6-[4-[3-(difluoromethyl)benzyl]piperazin-1-yl][1,2,4]triazolo[4,3-b]pyridazine]",1.9
10,"FC(F)c1ccc(CN2CCN(c3ccc4nnc(C(F)F)n4n3)CC2)cc1 [Example 826, 3-(difluoromethyl)-6-[4-[4-(difluoromethyl)benzyl]piperazin-1-yl][1,2,4]triazolo[4,3-b]pyridazine]",1.4
11,"FC(F)c1ccc(CN2CCN(c3ccc4nnc(C(F)(F)F)n4n3)CC2)cc1 [Example 827, 6-[4-[4-(difluoromethyl)benzyl]piperazin-1-yl]-3-(trifluoromethyl)[1,2,4]triazolo[4,3-b]pyridazine]",1
12,"C[C@@H]1CN(c2ccc3nnc(C(F)(F)F)n3n2)CCN1Cc1ccncc1 [Example 828, 6-[(3R)-3-methyl-4-(pyridin-4-ylmethyl)piperazin-1-yl]-3-(trifluoromethyl)[1,2,4]triazolo[4,3-b]pyridazine]",9.5
13,C[C@@H]1CN(c2ccc3nnc(C(F)(F)F)n3n2)CCN1Cc1cccc(Br)n1 [Example 830],0.85
14,C[C@@H]1CN(c2ccc3nnc(C(F)(F)F)n3n2)CCN1Cc1cccnc1Cl [Example 832],1.4
15,C[C@@H]1CN(c2ccc3nnc(C(F)(F)F)n3n2)CCN1Cc1ccc(Cl)nc1 [Example 833],> 12
16,C[C@@H]1CN(c2ccc3nnc(C(F)(F)F)n3n2)CCN1Cc1cc(Br)cnc1F [Example 835],20
17,"N#Cc1ccc(CN2CC3CN(c4ccc5nnc(C(F)(F)F)n5n4)CC3C2)cn1 (centres unmarked) [Example 837, 5-[[5-[3-(trifluoromethyl)[1,2,4]triazolo[4,3-b]pyridazin-6-yl]hexahydropyrrolo[3,4-c]pyrrol-2(1H)-yl]methyl]pyridine-2-carbonitrile]",1.6
18,"N#Cc1ccc(CN2CCN(c3ccc4nnc(C(F)(F)F)n4n3)CC2)cn1 [Example 838, 5-[[4-[3-(trifluoromethyl)[1,2,4]triazolo[4,3-b]pyridazin-6-yl]piperazin-1-yl]methyl]pyridine-2-carbonitrile]",7.6
19,Fc1ccc(CN2[C@@H]3CC[C@H]2CN(c2ccc4nnc(C(F)(F)F)n4n2)C3)cc1 [Example 839],1.1
20,N#Cc1cccc(CN2[C@@H]3CC[C@H]2CN(c2ccc4nnc(C(F)(F)F)n4n2)C3)c1 [Example 840],2.6
21,N#Cc1ccc(CN2[C@@H]3CC[C@H]2CN(c2ccc4nnc(C(F)(F)F)n4n2)C3)cc1 [Example 841],2.9
22,Fc1cccc(CN2CCN(c3ccc4nnc(C(F)(F)F)n4n3)CC(F)(F)C2)c1 [Example 842],1.1
